Data as given in patent US20180064829A1, “FLUORESCENT BISPHOSPHONATE ANALOGS” (University of Southern California, priority 2015, published 2018).

Key:
[1] = test system: unprenylated Rap1A (uRap1A); assay: Prenylation assay: Western blot for unprenylated Rap1A in J774.2 macrophages; type: cell-based, mouse; conditions: 10 or 100 μM, 24 h, FIG. 5A-C
Method: To determine the effect of fluorescent BP probes on protein prenylation, J774.2 mouse macrophages were plated out at 2×10^5 cells/mL in 24-well plates and left to adhere overnight. Cells were then treated with 10 or 100 μM of fluorescent analogues of RIS, dRIS, and ZOL, the respective native BP, or vehicle, for 24 h. Cells were lysed in radioimmunoprecipitation buffer, and proteins were separated by sodium dodecyl sulfate polyacrylamide gel electrophoresis and transferred to polyvinyl difluoride membranes by western blotting. Membranes were then incubated with antibodies to the unprenylated form of Rap1A (uRap1A) and the housekeeping protein β-actin, which were detected by incubation with fluorescently-labeled secondary antibodies and scanning of membranes on a LI-COR Infrared Imager. Results shown are representative of 2 independent experiments. The ratio between abundance of unprenylated RaplA and β-actin is indicated for each sample below the blots in FIG. 5.

[2] = UV-VIS absorption and fluorescence emission spectra; type: physicochemical; conditions: 0.1M phosphate buffer (1x PBS for 7d5); ± 1 nm error
[3] = pH 7.2, 0.1M phosphate buffer; assumed the same as the corresponding fluorescent dye; cited from earlier work
bone resorption = conditions: rat model in vivo, ref. [15a]; cited from earlier work
[4] = pKa and protonation status of the heterocyclic nitrogen; type: physicochemical; conditions: pH 6.0; calculated by Henderson-Hasselbalch equation
From the text: The nucleophilicity and Lewis basicity of the nitrogen atom of the three heterocyclic N-BPs studied in this report vary, and these properties appear to be the major determinants of their conjugation reactivity. Thus, the ‘magic linker’ methodology for RIS required modification for ZOL (1d), MIN (1e), and their related analogues (1f). […] The protonation status of the heteroatom at different pH is also critical to the reactivity. […] Under such conditions, more than 50% (˜71.3% calculated) of the nitrogen of RIS will be deprotonated, and able to attack the epoxide ring nucleophilically. However, at pH 6.0, only 18% of the nitrogen of ZOL (22% for MIN) is deprotonated, thus the reactions were very slow (2d) at pH 6.0. At pH 7.0-7.5, reaction was more rapid, but the regioselectivity (N-alkylation vs. O-alkylation) for 1d, 1e, 1f was not as good as for RIS and its analogues (1a, 1b, 1c); 10-20% of side products could be observed, which were confirmed by HPLC, NMR and MS to be the products of N,O(P)-dialkylation (O-alkylation occurs between the phosphonate/carboxylate group of the drug and the epoxide). The reaction rate of MinPC (1f)-epoxide (5) coupling was even slower than ZOL under the same reaction conditions (same reactant ratio, pH 7.5, 40-45° C.), which might be due to a steric effect from the large heterocycle. In addition, the percent of side products was higher and O-alkylation products were also observed in the reaction mixture.
The following publications are incorporated by reference herein in their entirety: • [1] a) R. G. G. Russell, N. B. Watts, F. H. Ebetino, M. J. Rogers, Osteoporos. Int. 2008, 19, 733-759; b) F. Ebetino, A. Hogan, S. Sun, M. Tsoumpra, X. Duan, J. Triffitt, A. Kwaasi, J. Dunford, B. Barnett, U. Oppermann, M. Lundy, A. Boyde, B. Kashemirov, C. McKenna, R. Russell, Bone 2011, 49 20-33. • [2] a) I. Reid, M. Bolland, A. Grey, Bone 2007, 41, 318-320; b) A. Siddiqi, A. Payne, S. Zafar, Oral Surg. Oral Med. Oral Pathol. Oral Radiol. Endod. […]

[5] = parent compounds, ref. [23]; cited from earlier work
[6] = RIS; not covered by the MarvinSketch note; cited from earlier work

Row | SMILES | accumulation of unprenylated Rap1A (anti-prenylation activity) [1] | Maximum absorption wavelength (λmax (abs), nm) [2] | Maximum emission wavelength (λmax (em), nm) [2] | Extinction coefficient [3] | Anti-resorptive activity (bone resorption) | fraction of the heterocyclic nitrogen deprotonated [4] | rank order of mineral binding affinity [5] | pKa of the heterocyclic nitrogen [6]
1 | O=C(NCC(O)C[n+]1ccn(CC(O)(P(=O)(O)O)P(=O)(O)O)c1)c1ccc(-c2c3ccc(=O)cc-3oc3cc(O)ccc23)c(C(=O)O)c1 (centres unmarked) [Compound 5-FAM-ZOL, 3-(3-(3-carboxy-4-(6-hydroxy-3-oxo-3H-xanthen-9-yl)benzamido)-2-hydroxypropyl)-1-(2-hydroxy-2,2-diphosphonoethyl)-1H-imidazol-3-ium] | retain some activity, although their potencies are weaker than native ZOL | 493 nm | 521 nm | 73,000 (pH 7.2) M^−1cm^−1 | demonstrated | – | – | –
2 | O=P(O)(O)C(O)(Cc1cccnc1)P(=O)(O)O [RIS, (1-hydroxy-2-pyridin-3-ylethane-1,1-diyl)bis(phosphonic acid)] | – | – | – | – | – | ~71.3% | RIS>dRIS>RISPC | 5.67
